The values below come from patent US20090215893A1, “Parakeratosis inhibitor, pore-shrinking agent,or rough skin preventing/ameliorating agent, and external composition for skin” (Shiseido Company Ltd, priority 2005, published 2009).

Data set [1] relates to pores of the cheeks of healthy human males. Briefly: Human pore-shrinking effect (replica assessment of cheek pores). Format: in vivo. The following applies: for Replica assessment (average of n = 5): sample 3 mass %, twice a day for one month, pore size rating 1-13, after application minus before application, control 0.3; for pore-shrinking effect: summary of Table 2, concentrations as in Table 2. As to the method: An experiment was conducted whereby a sample was applied twice a day for one month to the cheeks of healthy human males in groups of 5 men each. Aqueous solutions (containing 15 mass % of ethanol) of 3 mass % of the α-amino acid derivative or a salt thereof were prepared as the evaluation sample. The pH was regulated by hydrochloric acid or sodium hydroxide so as to be 7.0 to 7.5. When sample solubility was low, the solution was prepared accordingly. The control was an aqueous 15% ethanol solution. The sample aqueous solution and control aqueous solution were applied to one half of the face at a time.
A replica was collected before and after continuous application, and changes in the shape of the pores at the same site were observed using a three-dimensional laser scanning microscope. The size of the pores was macroscopically evaluated in 13 steps of 1 through 13 (with the pores becoming larger as the numbers became larger), the difference in the ratings before and after application (after application-before application) was calculated, and the efficacy of each sample was studied using this difference as the replica assessment.

For data set [2], the system named is cheek of a panel of 20 women. Description: Sensory irritation tests. Format: in vivo, human. The following applies: for Evaluation (sensory irritation, class of average rating): sample 3 mass %, 1 mL on cheek, evaluated for ten minutes, 20 women; for sensory irritation: summary of Table 4, β-alanine at 3%. As for the experimental part: 1 mL of a control aqueous solution and the sample aqueous solution prepared in Example 1 were applied using a cotton swab to the left or right cheek, respectively, of a panel of 20 women, the irritating sensation was evaluated every 30 seconds for ten minutes beginning immediately after application, and a final evaluation was reported. The evaluation of the irritating sensation was based on the following four steps of rating criteria, the average rating was calculated, and the average was classified by the following criteria.
3: Discontinued because of extremely strong irritation, such as stinging sensation, burning sensation, tickling sensation, itching, and the like.
2: Intolerable strong irritation, such as stinging sensation, burning sensation, tickling sensation, itching, and the like.
1: Tolerable with only slight stinging sensation, burning sensation, tickling sensation, itching, and the like.
0: Not particularly irritating.
A: average rating of less than 0.2
B: average rating of 0.2 to less than 1.0
C: average rating of 1.0 to less than 2.0
D: average rating of 2.0 or greater

The test system of data set [3] is back of a hairless mouse (HR-1), 10 mass % oleic acid applied. Description: Parakeratosis-inhibiting effect tests: oleic acid applied to hairless mouse back, macroscopic rough skin evaluation and parakeratosis value. Format: in vivo. The following applies: for Macroscopic evaluation (average of four animals) / Parakeratosis value (average of four animals): sample 3 mass %; for Macroscopic evaluation (average of four animals): 100 μL after oleic acid, three days, rough skin score 0.0 (no redness) to 2.0 (control); for Parakeratosis value (average of four animals): tape-stripped stratum corneum, hematoxylin, range 1.0 to 3.0, higher = parakeratosis advanced, control 2.0; for parakeratosis value / parakeratosis-inhibiting effect / rough skin preventing effect, based on stratum corneum peeling and redness: summary of Table 1, concentrations as in Table 1. As to the method: Aqueous solutions (containing 30 mass % of ethanol) of primarily 3 mass % of an α-amino acid derivative or salt thereof were prepared as the evaluation sample. The pH was regulated by hydrochloric acid or sodium hydroxide so as to be 7.0 to 7.5. When sample solubility was low, the solution was prepared accordingly.
100 μL of 10 mass % oleic acid solution (solvent: ethanol) were applied to the back of a hairless mouse (HR-1; Hoshino Laboratory Animals). Then the sample solution (α-amino acid derivative, and the like) was applied 100 μL at a time. This procedure was continued for three days. […] The status of the skin was evaluated in 0.25-point intervals, with skin where the control (control aqueous solution) had been applied being 2.0 and skin where there was no redness being 0.0. At the same time, the stratum corneum at the back of the hairless mouse was peeled off with tape, the nuclei were stained by hematoxylin, and the degree of parakeratosis was observed and evaluated by a parakeratosis value within a range of 1.0 to 3.0 (in 0.25 increments).

Data set [4] concerns back of hairless mice (HR-1), 10 mass % oleic acid applied. Description: Inhibiting effect against rough skin induced by oleic acid application (transepidermal water loss). Format: in vivo. Details: ΔTEWL value: unit not given here. The following applies: for ΔTEWL value: sample 3 mass %, three days, average of four animals, rough skin worse as value increases, control 12.0; for ΔTEWL value compared with the control aqueous solution / rough skin preventing/ameliorating effect: summary of Table 3, concentrations as in Table 3. As to the method:
In order to investigate the inhibiting effect of α-amino acid derivatives and salts thereof against rough skin induced by oleic acid application, the transepidermal water loss (TEWL value) before and after application was measured, the difference was compared with the control (control aqueous solution), and the effect was determined. Sample preparation and the application method were in accordance with Example 1. The TEWL was determined using the TM210 TEWA Meter (Courage+Khazaka Electronic GmBH).
100 μL of 10 mass % oleic acid (solvent: ethanol) was applied to the back of hairless mice (HR-1, four mice per group). Then a sample solution (α-amino acid derivatives, and the like) was applied 100 μL at a time. This procedure was continued for three days. The following day, the TEWL value of the back was determined and the values of the four animals were averaged. Rough skin became worse as the ΔTEWL value increased.

Molecules are shown by their SMILES.

Consider `C[C@H](NC(=O)OCc1ccccc1)C(=O)O` [N-carbobenzoyloxy-L-alanine], for which, in data set [1], the “Replica assessment (average of n = 5)” value was −0.9 and the “pore-shrinking effect” value is listed as “seen”. For the same compound, in data set [2], the “Evaluation (sensory irritation, class of average rating)” value is recorded as “A (average rating of less than 0.2)” and the “sensory irritation” value is “no problems”. Besides, in data set [3], the “Macroscopic evaluation (average of four animals)” value (shortened to “Macroscopic evaluation”) worked out at 1.2; the “Parakeratosis value (average of four animals)” value was determined as 1.3; the “parakeratosis value / parakeratosis-inhibiting effect” value is listed as “reduced”; the “rough skin preventing effect, based on stratum corneum peeling and redness” value (shortened to “rough skin preventing effect, based”) was “seen”. For the same compound, in data set [4], the ΔTEWL value was found to be 6.9 and the “ΔTEWL value compared with the control aqueous solution / rough skin preventing/ameliorating effect” value is recorded as “significantly lower”.
With `O=C(N[C@@H](CO)C(=O)O)OCc1ccccc1` [N-carbobenzoyloxy-L-serine], in data set [1], the “Replica assessment (average of n = 5)” value is given as −1.2 and the “pore-shrinking effect” value is reported as “seen”. For the same compound, in data set [2], the “Evaluation (sensory irritation, class of average rating)” value was “A (average rating of less than 0.2)” and the “sensory irritation” value is given as “no problems”. Moreover, in data set [3], the “Macroscopic evaluation” value came to 1.2; the “Parakeratosis value (average of four animals)” value is recorded as 1.1; the “parakeratosis value / parakeratosis-inhibiting effect” value was “reduced”; the “rough skin preventing effect, based” value is on record as “seen”. Moreover, in data set [4], the ΔTEWL value is on record as 6.7 and the “ΔTEWL value compared with the control aqueous solution / rough skin preventing/ameliorating effect” value is “significantly lower”.
For `C[C@@H](NC1CCCCC1)C(=O)O` [N-cyclohexyl-D-alanine], in data set [1], the “Replica assessment (average of n = 5)” value is listed as −1.3 and the “pore-shrinking effect” value was “seen”. In data set [2], the “Evaluation (sensory irritation, class of average rating)” value is “A (average rating of less than 0.2)” and the “sensory irritation” value is given as “no problems”. Also, in data set [3], the “Macroscopic evaluation” value is reported as 1.3; the “Parakeratosis value (average of four animals)” value came out at 1.4; the “parakeratosis value / parakeratosis-inhibiting effect” value was “reduced”; the “rough skin preventing effect, based” value is “seen”. Moreover, in data set [4], the ΔTEWL value is on record as 6.9 and the “ΔTEWL value compared with the control aqueous solution / rough skin preventing/ameliorating effect” value was “significantly lower”.
As to `O=C(O)[C@@H](CO)NC1CCCCC1` [N-cyclohexyl-D-serine], in data set [1], the “Replica assessment (average of n = 5)” value is recorded as −1.3 and the “pore-shrinking effect” value was “seen”. For the same compound, in data set [2], the “Evaluation (sensory irritation, class of average rating)” value is recorded as “A (average rating of less than 0.2)” and the “sensory irritation” value was “no problems”. In addition, in data set [3], the “Macroscopic evaluation” value stood at 1.3; the “Parakeratosis value (average of four animals)” value is 1.2; the “parakeratosis value / parakeratosis-inhibiting effect” value is reported as “reduced”; the “rough skin preventing effect, based” value is listed as “seen”. Moreover, in data set [4], the ΔTEWL value is on record as 6.8 and the “ΔTEWL value compared with the control aqueous solution / rough skin preventing/ameliorating effect” value is “significantly lower”.
Regarding `C[C@H](NC1CCCCC1)C(=O)O` [N-cyclohexyl-L-alanine], in data set [1], the “Replica assessment (average of n = 5)” value is reported as −1.2 and the “pore-shrinking effect” value is on record as “seen”. Also, in data set [2], the “Evaluation (sensory irritation, class of average rating)” value was “A (average rating of less than 0.2)” and the “sensory irritation” value is listed as “no problems”. Moreover, in data set [3], the “Macroscopic evaluation” value was 1.4; the “Parakeratosis value (average of four animals)” value turned out to be 1.3; the “parakeratosis value / parakeratosis-inhibiting effect” value is “reduced”; the “rough skin preventing effect, based” value is “seen”. For the same compound, in data set [4], the ΔTEWL value was determined as 7.1 and the “ΔTEWL value compared with the control aqueous solution / rough skin preventing/ameliorating effect” value was “significantly lower”.
With `O=C(O)[C@H](CO)NC1CCCCC1` [N-cyclohexyl-L-serine], in data set [1], the “Replica assessment (average of n = 5)” value is −1.4 and the “pore-shrinking effect” value is reported as “seen”. In data set [2], the “Evaluation (sensory irritation, class of average rating)” value is “A (average rating of less than 0.2)” and the “sensory irritation” value is given as “no problems”. Moreover, in data set [3], the “Macroscopic evaluation” value is given as 1.3; the “Parakeratosis value (average of four animals)” value is given as 1.2; the “parakeratosis value / parakeratosis-inhibiting effect” value was “reduced”; the “rough skin preventing effect, based” value is reported as “seen”. In addition, in data set [4], the ΔTEWL value is recorded as 7.0 and the “ΔTEWL value compared with the control aqueous solution / rough skin preventing/ameliorating effect” value was “significantly lower”.
In the case of `O=C(O)CNC1CCCCC1` [N-cyclohexyl-glycine], in data set [1], the “Replica assessment (average of n = 5)” value is given as −1.5 and the “pore-shrinking effect” value is given as “seen”. Also, in data set [2], the “Evaluation (sensory irritation, class of average rating)” value was “A (average rating of less than 0.2)” and the “sensory irritation” value is listed as “no problems”. Moreover, in data set [3], the “Macroscopic evaluation” value is 1.2; the “Parakeratosis value (average of four animals)” value worked out at 1.1; the “parakeratosis value / parakeratosis-inhibiting effect” value is given as “reduced”; the “rough skin preventing effect, based” value was “seen”. In data set [4], the ΔTEWL value was found to be 6.4 and the “ΔTEWL value compared with the control aqueous solution / rough skin preventing/ameliorating effect” value was “significantly lower”.
For the compound `CCN[C@H](C)C(=O)O` [N-ethyl-D-alanine], in data set [1], the “Replica assessment (average of n = 5)” value is −0.5 and the “pore-shrinking effect” value is recorded as “seen”. Besides, in data set [2], the “Evaluation (sensory irritation, class of average rating)” value is “A (average rating of less than 0.2)” and the “sensory irritation” value was “no problems”. In data set [3], the “Macroscopic evaluation” value is 1.6; the “Parakeratosis value (average of four animals)” value is reported as 1.7; the “parakeratosis value / parakeratosis-inhibiting effect” value was “reduced”; the “rough skin preventing effect, based” value is listed as “seen”. Moreover, in data set [4], the ΔTEWL value turned out to be 8.3 and the “ΔTEWL value compared with the control aqueous solution / rough skin preventing/ameliorating effect” value is “significantly lower”.
Regarding `CCN[C@H](CO)C(=O)O` [N-ethyl-D-serine], in data set [1], the “Replica assessment (average of n = 5)” value is −1.2 and the “pore-shrinking effect” value is on record as “seen”. Moreover, in data set [2], the “Evaluation (sensory irritation, class of average rating)” value is “A (average rating of less than 0.2)” and the “sensory irritation” value is “no problems”. In data set [3], the “Macroscopic evaluation” value came to 1.3; the “Parakeratosis value (average of four animals)” value was 1.3; the “parakeratosis value / parakeratosis-inhibiting effect” value is given as “reduced”; the “rough skin preventing effect, based” value is given as “seen”. Also, in data set [4], the ΔTEWL value was 7.9 and the “ΔTEWL value compared with the control aqueous solution / rough skin preventing/ameliorating effect” value is “significantly lower”.
As to `CCN[C@@H](C)C(=O)O` [N-ethyl-L-alanine], in data set [1], the “Replica assessment (average of n = 5)” value is on record as −0.4 and the “pore-shrinking effect” value is given as “seen”. In data set [2], the “Evaluation (sensory irritation, class of average rating)” value was “A (average rating of less than 0.2)” and the “sensory irritation” value is reported as “no problems”. In addition, in data set [3], the “Macroscopic evaluation” value was 1.5; the “Parakeratosis value (average of four animals)” value worked out at 1.4; the “parakeratosis value / parakeratosis-inhibiting effect” value was “reduced”; the “rough skin preventing effect, based” value is listed as “seen”. In addition, in data set [4], the ΔTEWL value is on record as 8.4 and the “ΔTEWL value compared with the control aqueous solution / rough skin preventing/ameliorating effect” value is recorded as “significantly lower”.
